Earlier results in US7423028B2, “Injectable pharmaceutical compositions comprising sodium diclofenac and β-cyclodextrin” (Ibsa Institut Biochemique S.A., priority 2004, dated 2008).

O=C([O-])Cc1ccccc1Nc1c(Cl)cccc1Cl.[Na+] [sodium diclofenac, 2-[(2,6-dichlorophenyl)amino]benzeneacetic acid monosodium salt]
solubility in water: sparingly soluble in water
